Results reported in article PMC10046369, “Low-Affinity/High-Selectivity Dopamine Transport Inhibition Sufficient to Rescue Cognitive Functions in the Aging Rat” (Biomolecules, 2023).

Experiments:
Assay in all cases: biochemical
Design in all cases: KINOMEscan competition binding panel, per cent of control
Settings in all cases: read-out: %Ctrl @ 2800nM
[1] = target: T1, ABL1(F317L)-phosphorylated (Homo sapiens, UniProt P00519, F317L)
T1 construct: phosphorylated
Procedure, shortened: (§1)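 Values are expressed as percent of control, calculated as ((test − positive control)/(negative control − positive control)) × 100, so lower numbers mean stronger hits. Binding was measured by KINOMEscan competition assay in a 450-kinase human panel including disease mutants, using the contractor's validated protocol.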

ACVR2B = ACVR2B (Homo sapiens, UniProt Q13705)
Procedure, shortened: as §1

ALK = ALK (Homo sapiens, UniProt Q9UM73)
Procedure, shortened: as §1

AMPK-alpha2 = target: T2, AMPK-alpha2 (Homo sapiens, UniProt P54646)
T2 construct: gene PRKAA2
Procedure, shortened: as §1

CLK4 = CLK4 (Homo sapiens, UniProt Q9HAZ1)
Procedure, shortened: as §1

CSNK1D = CSNK1D (Homo sapiens, UniProt P48730)
Procedure, shortened: as §1

EPHA8 = EPHA8 (Homo sapiens, UniProt P29322)
Procedure, shortened: as §1

EPHB2 = EPHB2 (Homo sapiens, UniProt P29323)
Procedure, shortened: as §1

EPHB6 = EPHB6 (Homo sapiens, UniProt O15197)
Procedure, shortened: as §1

ERBB2 = ERBB2 (Homo sapiens, UniProt P04626)
Procedure, shortened: as §1

FGFR3 = FGFR3 (Homo sapiens, UniProt P22607)
Procedure, shortened: as §1

FLT3(D835H) = FLT3(D835H) (Homo sapiens, UniProt P36888, D835H)
Procedure, shortened: as §1

IKK-beta = target: T3, IKK-beta (Homo sapiens, UniProt O14920)
T3 construct: gene IKBKB
Procedure, shortened: as §1

INSR = INSR (Homo sapiens, UniProt P06213)
Procedure, shortened: as §1

LATS1 = LATS1 (Homo sapiens, UniProt O95835)
Procedure, shortened: as §1

MAP3K4 = MAP3K4 (Homo sapiens, UniProt Q9Y6R4)
Procedure, shortened: as §1

MAP4K3 = MAP4K3 (Homo sapiens, UniProt Q8IVH8)
Procedure, shortened: as §1

MARK3 = MARK3 (Homo sapiens, UniProt P27448)
Procedure, shortened: as §1

MET(M1250T) = MET(M1250T) (Homo sapiens, UniProt P08581, M1250T)
Procedure, shortened: as §1

MLK3 = target: T4, MLK3 (Homo sapiens, UniProt Q16584)
T4 construct: gene MAP3K11
Procedure, shortened: as §1

NEK4 = NEK4 (Homo sapiens, UniProt P51957)
Procedure, shortened: as §1

PIK3CA(Q546K) = PIK3CA(Q546K) (Homo sapiens, UniProt P42336, Q546K)
Procedure, shortened: as §1

PLK3 = PLK3 (Homo sapiens, UniProt Q9H4B4)
Procedure, shortened: as §1

PRKX = PRKX (Homo sapiens, UniProt P51817)
Procedure, shortened: as §1

[2] = target: T5, RSK3(Kin.Dom.1-N-terminal) (Homo sapiens, UniProt Q15349)
T5 construct: gene RPS6KA2; Kin.Dom.1-N-terminal
Procedure, shortened: as §1

STK36 = STK36 (Homo sapiens, UniProt Q9NRP7)
Procedure, shortened: as §1

Sequence of MAP3K4 (Q9Y6R4 whole entry): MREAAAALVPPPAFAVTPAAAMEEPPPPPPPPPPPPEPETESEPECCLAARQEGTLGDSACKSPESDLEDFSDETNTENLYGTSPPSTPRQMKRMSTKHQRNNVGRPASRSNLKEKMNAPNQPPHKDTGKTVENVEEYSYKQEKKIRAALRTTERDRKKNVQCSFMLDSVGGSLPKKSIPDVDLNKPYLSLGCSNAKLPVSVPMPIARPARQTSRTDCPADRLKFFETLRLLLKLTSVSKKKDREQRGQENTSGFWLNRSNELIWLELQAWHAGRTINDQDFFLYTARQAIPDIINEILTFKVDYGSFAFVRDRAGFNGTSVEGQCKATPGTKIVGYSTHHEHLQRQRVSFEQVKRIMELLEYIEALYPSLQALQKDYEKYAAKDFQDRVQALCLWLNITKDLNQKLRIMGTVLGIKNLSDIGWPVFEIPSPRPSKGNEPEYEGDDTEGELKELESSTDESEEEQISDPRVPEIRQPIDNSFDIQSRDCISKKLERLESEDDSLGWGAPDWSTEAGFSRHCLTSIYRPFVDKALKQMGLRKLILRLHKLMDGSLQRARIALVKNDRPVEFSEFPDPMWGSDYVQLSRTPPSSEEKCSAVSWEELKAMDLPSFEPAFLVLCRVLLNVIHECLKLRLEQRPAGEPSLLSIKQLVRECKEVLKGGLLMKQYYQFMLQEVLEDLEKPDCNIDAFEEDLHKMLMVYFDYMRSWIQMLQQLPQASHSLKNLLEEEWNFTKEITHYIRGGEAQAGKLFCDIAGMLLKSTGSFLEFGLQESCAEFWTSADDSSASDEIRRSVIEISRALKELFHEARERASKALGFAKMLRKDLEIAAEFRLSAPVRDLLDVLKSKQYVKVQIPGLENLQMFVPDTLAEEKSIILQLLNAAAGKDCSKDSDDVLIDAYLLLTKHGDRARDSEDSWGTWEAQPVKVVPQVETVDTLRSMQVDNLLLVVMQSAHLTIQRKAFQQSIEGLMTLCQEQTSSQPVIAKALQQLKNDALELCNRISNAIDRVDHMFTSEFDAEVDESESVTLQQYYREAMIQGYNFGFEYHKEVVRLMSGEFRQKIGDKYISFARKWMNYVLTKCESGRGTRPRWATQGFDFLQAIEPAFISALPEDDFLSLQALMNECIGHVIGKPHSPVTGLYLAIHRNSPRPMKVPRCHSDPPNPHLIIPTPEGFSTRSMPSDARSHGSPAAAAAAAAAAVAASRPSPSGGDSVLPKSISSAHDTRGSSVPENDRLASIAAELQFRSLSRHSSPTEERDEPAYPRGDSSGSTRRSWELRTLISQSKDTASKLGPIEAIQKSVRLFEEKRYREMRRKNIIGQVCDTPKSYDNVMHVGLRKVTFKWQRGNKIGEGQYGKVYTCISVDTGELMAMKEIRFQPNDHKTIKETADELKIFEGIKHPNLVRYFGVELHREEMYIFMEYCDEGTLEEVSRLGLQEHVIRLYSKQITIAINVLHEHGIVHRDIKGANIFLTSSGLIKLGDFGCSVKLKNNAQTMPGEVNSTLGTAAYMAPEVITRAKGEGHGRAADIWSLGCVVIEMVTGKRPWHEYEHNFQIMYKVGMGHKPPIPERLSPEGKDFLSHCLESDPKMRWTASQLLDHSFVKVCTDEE
Sequence of EPHB2 (P29323 whole entry): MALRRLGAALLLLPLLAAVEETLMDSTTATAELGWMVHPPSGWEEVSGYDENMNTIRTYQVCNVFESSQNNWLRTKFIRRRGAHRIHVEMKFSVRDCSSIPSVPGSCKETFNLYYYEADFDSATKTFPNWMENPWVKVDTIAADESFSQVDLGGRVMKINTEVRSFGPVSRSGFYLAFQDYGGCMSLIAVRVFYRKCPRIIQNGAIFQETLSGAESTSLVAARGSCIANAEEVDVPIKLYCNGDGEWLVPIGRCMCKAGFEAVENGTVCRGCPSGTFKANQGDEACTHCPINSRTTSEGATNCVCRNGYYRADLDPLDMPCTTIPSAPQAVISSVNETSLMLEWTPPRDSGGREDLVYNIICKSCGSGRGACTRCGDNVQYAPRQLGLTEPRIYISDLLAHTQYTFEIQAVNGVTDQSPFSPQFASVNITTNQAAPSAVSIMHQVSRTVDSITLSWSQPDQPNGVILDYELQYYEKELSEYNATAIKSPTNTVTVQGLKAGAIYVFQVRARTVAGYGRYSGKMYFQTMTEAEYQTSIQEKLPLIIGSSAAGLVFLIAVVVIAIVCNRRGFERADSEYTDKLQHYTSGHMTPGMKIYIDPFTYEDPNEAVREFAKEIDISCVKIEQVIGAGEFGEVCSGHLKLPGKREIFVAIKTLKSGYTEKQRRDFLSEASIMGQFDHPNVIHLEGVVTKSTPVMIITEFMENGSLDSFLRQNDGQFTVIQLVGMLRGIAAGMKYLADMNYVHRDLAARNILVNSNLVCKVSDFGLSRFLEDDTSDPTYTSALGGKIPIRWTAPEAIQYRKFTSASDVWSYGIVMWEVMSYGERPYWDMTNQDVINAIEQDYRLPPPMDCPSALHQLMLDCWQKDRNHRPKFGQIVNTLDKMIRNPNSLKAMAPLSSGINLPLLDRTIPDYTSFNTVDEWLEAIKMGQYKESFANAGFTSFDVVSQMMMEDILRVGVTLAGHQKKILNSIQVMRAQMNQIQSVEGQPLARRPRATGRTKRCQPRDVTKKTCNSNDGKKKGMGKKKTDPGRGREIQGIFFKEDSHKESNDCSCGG
Sequence of LATS1 (O95835 whole entry): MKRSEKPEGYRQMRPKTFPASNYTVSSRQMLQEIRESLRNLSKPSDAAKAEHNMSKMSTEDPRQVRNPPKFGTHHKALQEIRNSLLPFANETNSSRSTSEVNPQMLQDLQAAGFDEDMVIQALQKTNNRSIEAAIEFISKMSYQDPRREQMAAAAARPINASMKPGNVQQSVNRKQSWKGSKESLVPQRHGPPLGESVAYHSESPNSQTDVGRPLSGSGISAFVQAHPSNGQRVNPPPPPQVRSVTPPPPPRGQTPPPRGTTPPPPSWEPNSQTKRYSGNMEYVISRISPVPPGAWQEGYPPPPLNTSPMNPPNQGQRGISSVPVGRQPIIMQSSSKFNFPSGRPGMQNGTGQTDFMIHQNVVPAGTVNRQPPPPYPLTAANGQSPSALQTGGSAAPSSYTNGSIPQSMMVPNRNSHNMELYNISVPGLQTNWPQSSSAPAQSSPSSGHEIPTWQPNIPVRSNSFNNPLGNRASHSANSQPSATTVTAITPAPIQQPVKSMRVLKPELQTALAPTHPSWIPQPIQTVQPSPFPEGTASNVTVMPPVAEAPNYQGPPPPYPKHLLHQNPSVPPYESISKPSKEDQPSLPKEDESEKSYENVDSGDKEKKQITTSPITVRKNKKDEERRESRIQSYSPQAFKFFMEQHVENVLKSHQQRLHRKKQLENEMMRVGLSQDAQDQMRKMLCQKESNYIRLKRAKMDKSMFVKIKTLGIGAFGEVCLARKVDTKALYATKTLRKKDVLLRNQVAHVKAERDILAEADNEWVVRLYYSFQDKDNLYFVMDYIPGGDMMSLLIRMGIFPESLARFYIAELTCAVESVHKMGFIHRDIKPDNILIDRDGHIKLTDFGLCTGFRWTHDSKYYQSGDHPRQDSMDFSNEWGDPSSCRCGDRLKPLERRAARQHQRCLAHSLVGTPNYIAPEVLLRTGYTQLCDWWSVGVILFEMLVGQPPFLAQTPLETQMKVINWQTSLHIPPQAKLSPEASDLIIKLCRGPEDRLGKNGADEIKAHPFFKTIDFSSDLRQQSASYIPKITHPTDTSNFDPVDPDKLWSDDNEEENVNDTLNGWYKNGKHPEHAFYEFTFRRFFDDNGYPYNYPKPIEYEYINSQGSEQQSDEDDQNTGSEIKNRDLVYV
T1 sequence (P00519 whole entry F317L): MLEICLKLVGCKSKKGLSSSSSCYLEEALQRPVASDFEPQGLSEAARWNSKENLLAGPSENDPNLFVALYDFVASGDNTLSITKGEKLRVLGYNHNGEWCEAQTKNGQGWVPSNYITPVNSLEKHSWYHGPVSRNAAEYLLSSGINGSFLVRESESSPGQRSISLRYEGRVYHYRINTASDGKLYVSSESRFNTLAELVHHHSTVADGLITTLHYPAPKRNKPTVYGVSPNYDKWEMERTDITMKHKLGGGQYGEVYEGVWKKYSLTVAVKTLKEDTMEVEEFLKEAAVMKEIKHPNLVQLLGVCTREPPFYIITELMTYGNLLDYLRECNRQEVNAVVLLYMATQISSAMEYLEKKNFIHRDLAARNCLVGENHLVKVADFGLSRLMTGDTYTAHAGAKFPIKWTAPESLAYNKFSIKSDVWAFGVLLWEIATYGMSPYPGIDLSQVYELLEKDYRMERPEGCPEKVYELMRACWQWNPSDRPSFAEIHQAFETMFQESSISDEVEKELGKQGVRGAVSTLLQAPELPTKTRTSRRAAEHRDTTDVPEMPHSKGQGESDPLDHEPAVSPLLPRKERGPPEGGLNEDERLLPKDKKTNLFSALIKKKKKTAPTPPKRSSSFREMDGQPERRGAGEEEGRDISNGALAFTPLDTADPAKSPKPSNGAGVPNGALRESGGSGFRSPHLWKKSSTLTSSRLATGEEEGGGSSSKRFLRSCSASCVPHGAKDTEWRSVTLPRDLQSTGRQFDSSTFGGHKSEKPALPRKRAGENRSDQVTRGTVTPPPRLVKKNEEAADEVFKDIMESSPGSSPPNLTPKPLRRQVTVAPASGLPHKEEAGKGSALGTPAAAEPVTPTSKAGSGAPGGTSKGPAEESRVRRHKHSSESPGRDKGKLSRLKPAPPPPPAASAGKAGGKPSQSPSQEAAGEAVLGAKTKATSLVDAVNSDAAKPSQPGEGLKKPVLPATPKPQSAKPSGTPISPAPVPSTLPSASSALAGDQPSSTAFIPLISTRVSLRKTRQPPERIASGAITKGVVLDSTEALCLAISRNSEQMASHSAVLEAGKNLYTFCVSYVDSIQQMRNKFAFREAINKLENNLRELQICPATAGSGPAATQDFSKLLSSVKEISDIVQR

## [O-][S@@+](Cc1cncs1)C(c1ccccc1)c1ccccc1 [S-CE-123, (S)-5-((Benzhydrylsulfinyl)Methyl)Thiazole]
[1]
  remaining binding at 2.8 µM: 100%
ACVR2B
  remaining binding at 2.8 µM: 100%
ALK
  remaining binding at 2.8 µM: 100%
AMPK-alpha2
  remaining binding at 2.8 µM: 97%
CLK4
  remaining binding at 2.8 µM: 100%
CSNK1D
  remaining binding at 2.8 µM: 100%
EPHA8
  remaining binding at 2.8 µM: 100%
EPHB2
  remaining binding at 2.8 µM: 89%
EPHB6
  remaining binding at 2.8 µM: 89%
ERBB2
  remaining binding at 2.8 µM: 100%
FGFR3
  remaining binding at 2.8 µM: 91%
FLT3(D835H)
  remaining binding at 2.8 µM: 58%
IKK-beta
  remaining binding at 2.8 µM: 96%
INSR
  remaining binding at 2.8 µM: 100%
LATS1
  remaining binding at 2.8 µM: 93%
MAP3K4
  remaining binding at 2.8 µM: 84%
MAP4K3
  remaining binding at 2.8 µM: 100%
MARK3
  remaining binding at 2.8 µM: 70%
MET(M1250T)
  remaining binding at 2.8 µM: 99%
MLK3
  remaining binding at 2.8 µM: 100%
NEK4
  remaining binding at 2.8 µM: 83%
PIK3CA(Q546K)
  remaining binding at 2.8 µM: 97%
PLK3
  remaining binding at 2.8 µM: 95%
PRKX
  remaining binding at 2.8 µM: 100%
[2]
  remaining binding at 2.8 µM: 100%
STK36
  remaining binding at 2.8 µM: 88%
